# Results published in patent US20120258998A1, “Fusion genes in gastrointestinal cancer” (priority 2011, published 2012).
# Read-outs that look alike come from different tables or passages of the source.
# Tests used:
# Format in all cases: cell-based
# [1] = tested on: AGS cells; test: Cell proliferation assay, AGS fusion negative cells
# Description: Gastric cancer cells were transfected with either specific siRNAs targeted to the CD44-SLC1A2 fusion site (100 nM, custom siRNA siGENOME with SMART selection, Dharmacon) or negative control scrambled siRNAs using siPORT™ NeoFX™ transfection reagent (Applied Biosystem) in Optimem Medium (Invitrogen) following the manufacturer's protocol. After 24, 48, and 72 hours siRNA treatment, cells were subjected for downstream analysis. For overexpression studies, the full length coding regions of CD44-SLC1A2 cDNA were inserted into the pEGFP-N1 vector. Control vectors or fusion-GFP vectors were introduced into HFE145 cells, and stable transfectants were selected using puromycin for 4 weeks. Cell proliferation assays were performed using a CellTiter-96 Aqueous Nonradioactive Cell Proliferation Assay kit (Promega) following the manufacturer's instructions and the plates were measured by PerkinElmer plate reader. Cell invasion assays were performed using Biocoat™ Matrigel™ invasion chambers with 8 μm pore filter inserts (BD Bioscience). 48 hours after transfection, 5×10^4 cells were transferred to the upper matrigel chamber in 500 μl of serum-free medium and incubated for 24 hours. Invading cells were counted using light microscopy. Each assay was performed in triplicate, and the results were averaged over three independent experiments. […]
# [2] = tested on: SNU16 cells; test: Cisplatin sensitivity, MTS proliferation assay; conditions: 48 hours of drug treatment, read-out: GI50 (concentration required to cause 50% growth inhibition)
# Description: (§1) Gastric cancer cells and primary tissues were lysed with glutamate assay buffer and glutamate concentrations were determined using a Glutamate Assay Kit (BioVision, USA). Briefly, to each cellular lysate, a vendor-provided glutamate Enzyme Mix was added which recognizes glutamate as a specific substrate leading to proportional color development. For cisplatin treatments, cells were seeded into 96 well plates after siRNA transfection. Subsequently, cisplatin or 5-FU at increasing dosages were added (0-1 mM) to respective wells. Cells were subjected to MTS proliferation assays after 48 hours of drug treatment. Each assay was performed in triplicate, and the results were averaged over three independent experiments.
# [3] = tested on: SNU16 cells; test: 5-Fluorouracil sensitivity, MTS proliferation assay; conditions: SNU16 cells before and after CD44-SLC1A2 siRNA1 silencing, vs scrambled siRNA
# Description: as §1
# [4] = tested on: SNU16 cells; test: Matrigel cell invasion assay, SNU16; conditions: vs control
# Description: (§2) Gastric cancer cells were transfected with either specific siRNAs targeted to the CD44-SLC1A2 fusion site (100 nM, custom siRNA siGENOME with SMART selection, Dharmacon) or negative control scrambled siRNAs using siPORT™ NeoFX™ transfection reagent (Applied Biosystem) in Optimem Medium (Invitrogen) following the manufacturer's protocol. After 24, 48, and 72 hours siRNA treatment, cells were subjected for downstream analysis. For overexpression studies, the full length coding regions of CD44-SLC1A2 cDNA were inserted into the pEGFP-N1 vector. Control vectors or fusion-GFP vectors were introduced into HFE145 cells, and stable transfectants were selected using puromycin for 4 weeks.
# (§3) Cell proliferation assays were performed using a CellTiter-96 Aqueous Nonradioactive Cell Proliferation Assay kit (Promega) following the manufacturer's instructions and the plates were measured by PerkinElmer plate reader. Cell invasion assays were performed using Biocoat™ Matrigel™ invasion chambers with 8 μm pore filter inserts (BD Bioscience). 48 hours after transfection, 5×10^4 cells were transferred to the upper matrigel chamber in 500 μl of serum-free medium and incubated for 24 hours. Invading cells were counted using light microscopy. Each assay was performed in triplicate, and the results were averaged over three independent experiments.
# [5] = tested on: SLC1A2 protein; test: Immunofluorescence staining with SLC1A2 antibodies; conditions: SNU16 cells, control vs fusion silenced
# Description: as §2
# Cells were fixed with 3.7% formaldehyde followed by permeabilisation using 0.1% Triton X-100. After 3× washes with 1×PBS, cells were blocked with 1% BSA. Subsequently, cells were incubated with primary SLC1A2 antibodies (Cell Signaling Technology) for 2 hours followed by 2 hours secondary antibody (Sigma) incubation. Images were taken using a Nikon Eclipse TE2000-U microscope.
# [6] = tested on: SLC1A2 protein; test: Western blotting with anti-SLC1A2 antibodies, SNU16 membrane fraction; conditions: after fusion-specific siRNA
# Description: Cells were harvested in lysis buffer (10 mM Tris.Cl pH 7.5, 150 mM NaCl, 1% Triton X-114) for 1 hour at […], and centrifuged at 800 g. Supernatants were incubated at 30° C. for 5-10 min and further centrifuged at RT, 300 g. Western blotting was performed on membrane fractions using the following antibodies and dilutions: 1:500 SLC1A2/EAAT2 (Cell Signaling Technologies), 1:2000 α-tubulin (Cell Signaling Technologies). Experiments were repeated a minimum of three independent times.
# as §2
# [7] = tested on: CD44-SLC1A2 fusion gene; test: RT-PCR of CD44-SLC1A2 expression after fusion-specific siRNA treatment; conditions: SNU16 cells, siRNA 100 nM, vs scrambled siRNA
# Description: (§4) Gastric cancer RNAs were reverse transcribed by SuperScript II reverse transcriptase enzyme using oligo-dT (T18) primers (Invitrogen). To detect CD44-SLC1A2, RT-PCR was performed using forward primers to CD44 exon 1 (5′-[…]-3′ (SEQ ID NO: 3)) and reverse primers to either SLC1A2 exon 3 (5′-[…]-3′ (SEQ ID NO: 4)); exon4 (5′-[…]-3′) (SEQ ID NO: 5); exons (5′-[…]-3′ (SEQ ID NO: 6)) or exon 6 (5′[…]-3′ (SEQ ID NO: 7)). Products were resolved by gel electrophoresis and bands of interest excised and cloned for subsequent analysis. To evaluate wild-type CD44 and SLC1A2 expression independently of CD44-SLC1A2, we used CD44 primers targeting exons 3, 4, 5; and SLC1A2 primers targeting exon 1. CD44-SLC1A2 RT-PCR involving clinical specimens (FIG. 1) was performed in an unselected cohort of gastric cancer patients. Reactions were repeated a minimum of three independent times.
# (§5) Gastric cancer cells were transfected with either specific siRNAs targeted to the CD44-SLC1A2 fusion site (100 nM, custom siRNA siGENOME with SMART selection, Dharmacon) or negative control scrambled siRNAs using siPORT™ NeoFX™ transfection reagent (Applied Biosystem) in Optimem Medium (Invitrogen) following the manufacturer's protocol. After 24, 48, and 72 hours siRNA treatment, cells were subjected for downstream analysis. […]
# [8] = tested on: wild-type CD44 and SLC1A2; test: RT-PCR of wild-type CD44 and SLC1A2 expression after fusion-specific siRNA treatment; conditions: SNU16 cells
# Description: as §4, §5
# [9] = tested on: SNU16 cells; test: Colony formation assay, SNU16; conditions: vs scrambled siRNA
# Description: as §2
# Base layers of 0.5% Gum Agar in 1× McCoy's 5 A and 10% FBS were poured into 6-well plates and allowed to harden at 4° C. After 48 hours siRNA transfection, 50,000 cells/well were seeded in complete media plus agar mixture at 42° C. and seeded on top of the solidified base layer. Plates were incubated at 37° C. in for 3-4 weeks, during which plates were fed drop-wise with complete media. After 3-4 weeks, plates were photographed using the Kodak GL 200 System (EpiWhite illumination). Each assay was performed in triplicate, and the results were averaged over three independent experiments.
# [10] = tested on: SNU16 cells; test: Cell proliferation assay, SNU16; conditions: vs scrambled/control siRNA
# Description: as §2, §3
compound,measurement,setting,value
"siRNA1: siRNA targeting the CD44-SLC1A2 fusion site, 5′-CGCAGAUCGUGCCAACAAUUU-3′ (SEQ ID NO: 27) (chemistry not given here)",proliferation of AGS cells after fusion-specific siRNA,[1],proliferation of AGS cells is not affected
N.N.[Cl][Pt][Cl] [cisplatin],GI50,[2]; SNU16 cells after CD44-SLC1A2 siRNA treatment,3.96 µM
same,GI50,[2]; control SNU16 cells,11.8 µM
O=c1[nH]cc(F)c(=O)[nH]1 [5-fluorouracil],"5-Fluorouracil sensitivity, control vs CD44-SLC1A2 silenced cells",[3],no differences between control and silenced cells were observed
same,"5-Fluorouracil sensitivity, control vs CD44-SLC1A2 silenced cells",[3]; listed as 5-Fluorouracil,no significant change in sensitivity to 5-Fluorouracil
"siRNA2: second siRNA targeting the CD44-SLC1A2 fusion site, 5′-GCACAUCGUGCCAACAAUAUU-3′ (SEQ ID NO: 28) (chemistry not given here)",cell invasion rate,[4],significant reduction of invasion rate
same,membranous expression of SLC1A2 (immunofluorescence),[5],significantly reduced
same,SLC1A2 protein expression (Western blotting),[6],knockdown of SLC1A2 protein expression
same,CD44-SLC1A2 expression,[7],Reduction of CD44-SLC1A2 expression
same,proliferation of AGS cells after fusion-specific siRNA,[1],proliferation of AGS cells is not affected
same,independent (regular) CD44 and SLC1A2 expression,[8],without impairing regular CD44 and SLC1A2 expression
same,colony formation (anchorage-independent growth),[9],reduction in numbers of colonies formed
same,proliferation rate,[10],significant decrease in proliferation rate
